The results in this text go back to US8889688B2, “Piperazines as antimalarial agents” (Actelion Pharmaceuticals Ltd., priority 2011, dated 2014).

The test system of test [1] is erythrocytic stages of P. falciparum NF54. As to the kind of experiment: Plasmodium falciparum in vitro assay, [3H] hypoxanthine incorporation. Conditions: Plasmodium falciparum, Erythrocyte, 72 h, P. falciparum NF54 in human red blood cells, 48 h + 24 h incubation. The format is cell-based. The essentials:
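Cultures in human red blood cells (2.5% hematocrit, 0.3% parasitemia) were exposed to serially diluted compounds for 48 h at 37° C. under 4% CO2, 3% O2, 93% N2. [3H] hypoxanthine (0.5 μCi) was added for a further 24 h, incorporation counted by scintillation, and IC50 derived from sigmoidal inhibition curves.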

Test [2] concerns P. berghei strain GFP-ANKA. As to the kind of experiment: In vivo antimalarial efficacy study in infected NMRI mice. The conditions noted are these: Plasmodium berghei; female NMRI mice infected with P. berghei GFP-ANKA; single oral dose of 100 mg/kg 24 h after infection; parasitemia 48 h after drug treatment (day 3); read-out: Activity (inhibition of parasitemia) expressed as a percent relative to the control group. On the procedure: In Vivo Antimalarial Efficacy Studies
In vivo antimalarial activity is assessed for groups of three female NMRI mice (20-22 g) intravenously infected on day 0 with P. berghei strain GFP-ANKA (0.2 mL heparinized saline suspension containing 2×10^7 parasitized erythrocytes). In control mice, parasitemia typically rises to approximately 40% by day 3 after infection. Compounds are formulated in Tween 80/ethanol (7%/3%) usually at concentrations of 10 mg/mL. Compounds are administered in a volume of 10 mL/kg orally as single doses (1×100 mg/kg, 24 h after infection). 48 h after drug treatment (day 3 post-infection), 1 μl tail blood is taken, resuspended in 1 mL PBS buffer and parasitemia determined with a FACScan (Becton Dickinson) by counting 100′000 red blood cells. Activity is calculated as the difference between the mean value of the control group and treated groups expressed as a percent relative to the control group.

Where [3] appears, read: screening medium with Albumax (5 g/L), read-out: IC50 on NF54 (with Albumax).
[4] abbreviates: screening medium with human serum (50% final concentration), read-out: IC50 on NF54 (with 50% Serum).

Structures are written as SMILES. Read-outs that look alike come from different tables or passages of the source.

The IC50 is the point on the concentration scale where inhibition reaches its midpoint.

As for `CC(=O)N1CCN(c2ccc(CN(C(=O)C=Cc3ccc(OC(F)F)cc3)[C@@H](Cc3ccccc3)C(=O)N3CCN(Cc4ccc(Cl)cc4)CC3)cc2)CC1` [Example 41, (S)-N-[4-(4-Acetyl-piperazin-1-yl)-benzyl]-N-{1-benzyl-2-[4-(4-chloro-benzyl)-piperazin-1-yl]-2-oxo-ethyl}-3-(4-difluoromethoxy-phenyl)-acrylamide], the half-maximal inhibitory concentration (IC50) in test [1] (setting [3]) came to 2.9 nM; in test [1] (setting [4]), 12.5 nM. Moreover, the inhibition in vivo at 100 mg/kg in test [2] was 71%.
The matching figures for `CC(=O)N1CCN(c2ccc(CN(C(=O)C=Cc3ccc(C(C)C)cc3)[C@@H](Cc3ccccc3)C(=O)N3CCN(Cc4ccc(Cl)cc4)CC3)cc2)CC1` [Example 42, (S)-N-[4-(4-Acetyl-piperazin-1-yl)-benzyl]-N-{1-benzyl-2-[4-(4-chloro-benzyl)-piperazin-1-yl]-2-oxo-ethyl}-3-(4-isopropyl-phenyl)-acrylamide]: 1.7 nM, 13.7 nM and 97.3%.
The matching figures for `CC(=O)N1CCN(c2ccc(CN(C(=O)C=Cc3ccc(C(C)(C)C)cc3)[C@@H](Cc3ccccc3)C(=O)N3CCN(Cc4ccc(Cl)cc4)CC3)cc2)CC1` [Example 43, (S)-N-[4-(4-Acetyl-piperazin-1-yl)-benzyl]-N-{1-benzyl-2-[4-(4-chloro-benzyl)-piperazin-1-yl]-2-oxo-ethyl}-3-(4-tert-butyl-phenyl)-acrylamide]: 1.1 nM, 13.5 nM and 98.7%.
`CC(=O)N1CCN(c2ccc(CN(C(=O)C=Cc3ccc(OC(C)C)cc3)[C@@H](Cc3ccccc3)C(=O)N3CCN(Cc4ccc(S(C)(=O)=O)cc4)CC3)cc2)CC1` [Example 44, (S)-N-[4-(4-Acetyl-piperazin-1-yl)-benzyl]-N-{1-benzyl-2-[4-(4-(methylsulfonyl)-benzyl)-piperazin-1-yl]-2-oxo-ethyl}-3-(4-isopropoxyphenyl)-acrylamide]: the half-maximal inhibitory concentration (IC50) in test [1] (setting [3]) stood at 0.4 nM; in test [1] (setting [4]) it was 2.8 nM. Also, the inhibition in vivo at 100 mg/kg in test [2] amounted to 99%.
The matching figures for `CC(=O)N1CCN(c2ccc(CN(C(=O)C=Cc3ccc(C(C)(C)C)cc3)[C@@H](Cc3ccccc3)C(=O)N3CCN(Cc4ccc(S(C)(=O)=O)cc4)CC3)cc2)CC1` [Example 45, (S)-N-[4-(4-Acetyl-piperazin-1-yl)-benzyl]-N-{1-benzyl-2-[4-(4-(methylsulfonyl)-benzyl)-piperazin-1-yl]-2-oxo-ethyl}-3-(4-tert-butyl-phenyl)-acrylamide]: 0.2 nM, 1.8 nM and 99.4%.
The matching figures for `CCCOc1ccc(C=CC(=O)N(Cc2ccc(N3CCN(C(C)=O)CC3)cc2)[C@@H](Cc2ccccc2)C(=O)N2CCN(Cc3ccc(S(C)(=O)=O)cc3)CC2)cc1` [Example 46, (S)-N-[4-(4-Acetyl-piperazin-1-yl)-benzyl]-N-{1-benzyl-2-[4-(4-(methylsulfonyl)-benzyl)-piperazin-1-yl]-2-oxo-ethyl}-3-(4-propoxyphenyl)-acrylamide]: 0.4 nM, 1.1 nM and 98.9%.
The matching figures for `CC(=O)N1CCN(c2ccc(CN(C(=O)C=Cc3ccc(C(F)(F)F)cc3)[C@@H](Cc3ccccc3)C(=O)N3CCN(Cc4ccc(S(C)(=O)=O)cc4)CC3)cc2)CC1` [Example 47, (S)-N-(4-(4-acetylpiperazin-1-yl)benzyl)-N-(1-(4-(4-(methylsulfonyl)benzyl)piperazin-1-yl)-1-oxo-3-phenylpropan-2-yl)-3-(4-(trifluoromethyl)phenyl)acrylamide]: 0.5 nM, 3.5 nM and 98.4%.
Turning to `CCCOc1ccc(C=CC(=O)N(Cc2ccc(N3CCN(C(C)=O)CC3)cc2)[C@@H](Cc2ccccc2)C(=O)N2CCN(Cc3ccc(S(=O)(=O)CC)cc3)CC2)cc1` [Example 48, (S)-N-[4-(4-Acetyl-piperazin-1-yl)-benzyl]-N-{1-benzyl-2-[4-(4-(ethylsulfonyl)-benzyl)-piperazin-1-yl]-2-oxo-ethyl}-3-(4-propoxyphenyl)-acrylamide], the IC50 is 0.5 nM in test [1] (setting [3]) and 1.6 nM in test [1] (setting [4]). Also, in test [2], the inhibition in vivo at 100 mg/kg was 99%.
For `CCS(=O)(=O)c1ccc(CN2CCN(C(=O)[C@H](Cc3ccccc3)N(Cc3ccc(N4CCN(C(C)=O)CC4)cc3)C(=O)C=Cc3ccc(C(F)(F)F)cc3)CC2)cc1` [Example 49, (S)-N-(4-(4-acetylpiperazin-1-yl)benzyl)-N-(1-(4-(4-(ethylsulfonyl)benzyl)piperazin-1-yl)-1-oxo-3-phenylpropan-2-yl)-3-(4-(trifluoromethyl)phenyl)acrylamide], the results for the IC50 in test [1] (setting [3]) and in test [1] (setting [4]) were 0.8 nM and 3.1 nM, respectively. Besides, the inhibition in vivo at 100 mg/kg in test [2] came to 98.6%.
On to `CC(=O)N1CCN(c2ccc(CN(C(=O)C=Cc3ccc(C(F)(F)F)cc3)[C@@H](Cc3ccccc3)C(=O)N3CCN(Cc4ccc(N(C)CCO)cc4)CC3)cc2)CC1` [Example 50, (S)-N-[4-(4-Acetyl-piperazin-1-yl)-benzyl]-N-[1-benzyl-2-(4-{4-[(2-hydroxy-ethyl)-methyl-amino]-benzyl}-piperazin-1-yl)-2-oxo-ethyl]-3-(4-trifluoromethyl-phenyl)-acrylamide], for which the values for the concentration for half-maximal inhibition (IC50) in test [1] (setting [3]) and in test [1] (setting [4]) were 1.6 nM and 9.3 nM, respectively. In test [2], the inhibition in vivo at 100 mg/kg stood at 98%.
On to `COc1ccc(C=CC(=O)N(Cc2ccc(N3CCN(C(C)=O)CC3)cc2)[C@@H](Cc2ccccc2)C(=O)N2CCN(Cc3ccc(N(C)CCO)cc3)CC2)cn1` [Example 52, (S)-N-[4-(4-Acetyl-piperazin-1-yl)-benzyl]-N-[1-benzyl-2-(4-{4-[(2-hydroxy-ethyl)-methyl-amino]-benzyl}-piperazin-1-yl)-2-oxo-ethyl]-3-(6-methoxy-pyridin-3-yl)-acrylamide], for which the 50% inhibitory concentration (IC50) in test [1] (setting [3]) amounted to 10 nM; in test [1] (setting [4]), 33 nM. Further, the inhibition in vivo at 100 mg/kg in test [2] was below 40%.
For `CCOc1ccc(C=CC(=O)N(Cc2ccc(N3CCN(C(C)=O)CC3)cc2)[C@@H](Cc2ccccc2)C(=O)N2CCN(Cc3ccc(N(C)CCO)cc3)CC2)cn1` [Example 53, (S)-N-[4-(4-Acetyl-piperazin-1-yl)-benzyl]-N-[1-benzyl-2-(4-{4-[(2-hydroxy-ethyl)-methyl-amino]-benzyl}-piperazin-1-yl)-2-oxo-ethyl]-3-(6-ethoxy-pyridin-3-yl)-acrylamide], the concentration for half-maximal inhibition (IC50) in test [1] (setting [3]) stood at 4.3 nM; in test [1] (setting [4]), 12.4 nM. Besides, the inhibition in vivo at 100 mg/kg in test [2] amounted to 52.3%.
For `CCOc1ccc(C=CC(=O)N(Cc2ccc(N3CCN(C(C)=O)CC3)cc2)[C@@H](Cc2ccccc2)C(=O)N2CCN(Cc3ccc(N(C)CCO)cc3)CC2)cc1` [Example 54, (S)-N-[4-(4-Acetyl-piperazin-1-yl)-benzyl]-N-[1-benzyl-2-(4-{4-[(2-hydroxy-ethyl)-methyl-amino]-benzyl}-piperazin-1-yl)-2-oxo-ethyl]-3-(4-ethoxy-phenyl)-acrylamide], the IC50 in test [1] (setting [3]) was 1.6 nM; in test [1] (setting [4]) it was 5.9 nM. Besides, the inhibition in vivo at 100 mg/kg in test [2] was 93.7%.
The matching figures for `CC(=O)N1CCN(c2ccc(CN(C(=O)C=Cc3ccc(S(C)(=O)=O)cc3)[C@@H](Cc3ccccc3)C(=O)N3CCN(Cc4ccc(N(C)CCO)cc4)CC3)cc2)CC1` [Example 55, (S)-N-[4-(4-Acetyl-piperazin-1-yl)-benzyl]-N-[1-benzyl-2-(4-{4-[(2-hydroxy-ethyl)-methyl-amino]-benzyl}-piperazin-1-yl)-2-oxo-ethyl]-3-(4-methanesulfonyl-phenyl)-acrylamide]: 7.5 nM, 14.8 nM and below 40%.
The matching figures for `CCCOc1ccc(C=CC(=O)N(Cc2ccc(N3CCN(C(C)=O)CC3)cc2)[C@@H](Cc2ccccc2)C(=O)N2CCN(Cc3ccc(N(C)CCO)cc3)CC2)cc1` [Example 57, (S)-N-[4-(4-Acetyl-piperazin-1-yl)-benzyl]-N-[1-benzyl-2-(4-{4-[(2-hydroxy-ethyl)-methyl-amino]-benzyl}-piperazin-1-yl)-2-oxo-ethyl]-3-(4-propoxy-phenyl)-acrylamide]: 1.7 nM, 5.1 nM and 98.2%.
Take `CC(=O)N1CCN(c2ccc(CN(C(=O)C=Cc3ccc(OC(C)C)cc3)[C@@H](Cc3ccccc3)C(=O)N3CCN(Cc4ccc(N(C)CCO)cc4)CC3)cc2)CC1` [Example 58, (S)-N-[4-(4-Acetyl-piperazin-1-yl)-benzyl]-N-[1-benzyl-2-(4-{4-[(2-hydroxy-ethyl)-methyl-amino]-benzyl}-piperazin-1-yl)-2-oxo-ethyl]-3-(4-isopropoxy-phenyl)-acrylamide]: the values for the IC50 in test [1] (setting [3]) and in test [1] (setting [4]) were 1.4 nM and 3.9 nM, respectively. Besides, the inhibition in vivo at 100 mg/kg in test [2] was 98.2%.
